The text below walks through data of publication PMC2801581 (Journal of medicinal chemistry, 2009).

In test [1] the target is T1, LYP (Homo sapiens, UniProt Q9Y2R2).
T1 sequence (Q9Y2R2 2-309): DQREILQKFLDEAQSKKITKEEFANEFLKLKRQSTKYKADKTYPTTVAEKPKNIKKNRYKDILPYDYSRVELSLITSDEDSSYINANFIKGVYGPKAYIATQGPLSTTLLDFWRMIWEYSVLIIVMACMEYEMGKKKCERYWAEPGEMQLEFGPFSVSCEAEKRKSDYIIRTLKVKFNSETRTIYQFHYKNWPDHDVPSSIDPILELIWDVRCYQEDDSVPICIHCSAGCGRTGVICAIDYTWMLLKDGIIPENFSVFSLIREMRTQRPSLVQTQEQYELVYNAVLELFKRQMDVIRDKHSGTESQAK
The experiment in a line: LYP inhibition assay with fluorogenic substrates. The note with it: for IC50: pH 6.5. Format: biochemical.

For the next test, the target named is T2, PTP-PEST (Homo sapiens, UniProt Q05209).
T2 sequence (Q05209 2-323): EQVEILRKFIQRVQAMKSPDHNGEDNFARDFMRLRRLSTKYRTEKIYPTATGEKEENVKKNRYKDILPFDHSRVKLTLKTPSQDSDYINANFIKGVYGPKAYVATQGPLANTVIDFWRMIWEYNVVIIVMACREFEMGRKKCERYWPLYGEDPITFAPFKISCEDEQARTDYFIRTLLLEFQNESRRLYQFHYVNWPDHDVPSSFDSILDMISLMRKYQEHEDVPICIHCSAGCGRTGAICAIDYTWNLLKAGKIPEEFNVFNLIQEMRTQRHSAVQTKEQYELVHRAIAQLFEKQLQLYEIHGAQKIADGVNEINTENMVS
The experiment in a line: PTP-PEST inhibition assay with fluorogenic substrates. Type of test: biochemical. The conditions noted are these: pH 6.5.

The target in the next test is T3, HePTP (Homo sapiens, UniProt P35236).
T3 sequence (P35236 65-360): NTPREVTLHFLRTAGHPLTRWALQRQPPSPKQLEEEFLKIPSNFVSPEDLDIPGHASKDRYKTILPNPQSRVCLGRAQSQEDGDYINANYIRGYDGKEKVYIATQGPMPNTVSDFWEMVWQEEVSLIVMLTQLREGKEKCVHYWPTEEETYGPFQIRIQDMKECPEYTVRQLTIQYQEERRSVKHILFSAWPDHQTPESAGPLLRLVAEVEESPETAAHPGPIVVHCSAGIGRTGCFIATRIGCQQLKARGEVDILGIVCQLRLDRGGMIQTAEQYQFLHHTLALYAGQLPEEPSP
The experiment in a line: HePTP counterscreen. Type of test: biochemical. The conditions noted are these: read-out: IC50 HePTP (DiFMUP).

The target in test [2] is T4, CD45 (Homo sapiens, UniProt P08575).
T4 sequence (P08575 653-912 limits assumed): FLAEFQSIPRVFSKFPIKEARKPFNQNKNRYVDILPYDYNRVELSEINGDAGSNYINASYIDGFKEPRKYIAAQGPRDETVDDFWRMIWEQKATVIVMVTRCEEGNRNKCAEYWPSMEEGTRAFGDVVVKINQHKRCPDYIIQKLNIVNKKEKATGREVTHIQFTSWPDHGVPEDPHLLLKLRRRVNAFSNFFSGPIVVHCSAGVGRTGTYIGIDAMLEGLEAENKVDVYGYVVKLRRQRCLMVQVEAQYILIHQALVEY
The experiment in a line: CD45 counterscreen. Type of test: biochemical. The note with it: read-out: IC50 CD45 (DiFMUP).

The subject of test [3] is LYP. The experiment in a line: Intracellular LYP inhibition in JTAg cells, anti-pLck. Format: cell-based, human.
The target of test [4] is T5, CD45 (Homo sapiens, UniProt P08575).
T5 sequence (P08575 26-1306): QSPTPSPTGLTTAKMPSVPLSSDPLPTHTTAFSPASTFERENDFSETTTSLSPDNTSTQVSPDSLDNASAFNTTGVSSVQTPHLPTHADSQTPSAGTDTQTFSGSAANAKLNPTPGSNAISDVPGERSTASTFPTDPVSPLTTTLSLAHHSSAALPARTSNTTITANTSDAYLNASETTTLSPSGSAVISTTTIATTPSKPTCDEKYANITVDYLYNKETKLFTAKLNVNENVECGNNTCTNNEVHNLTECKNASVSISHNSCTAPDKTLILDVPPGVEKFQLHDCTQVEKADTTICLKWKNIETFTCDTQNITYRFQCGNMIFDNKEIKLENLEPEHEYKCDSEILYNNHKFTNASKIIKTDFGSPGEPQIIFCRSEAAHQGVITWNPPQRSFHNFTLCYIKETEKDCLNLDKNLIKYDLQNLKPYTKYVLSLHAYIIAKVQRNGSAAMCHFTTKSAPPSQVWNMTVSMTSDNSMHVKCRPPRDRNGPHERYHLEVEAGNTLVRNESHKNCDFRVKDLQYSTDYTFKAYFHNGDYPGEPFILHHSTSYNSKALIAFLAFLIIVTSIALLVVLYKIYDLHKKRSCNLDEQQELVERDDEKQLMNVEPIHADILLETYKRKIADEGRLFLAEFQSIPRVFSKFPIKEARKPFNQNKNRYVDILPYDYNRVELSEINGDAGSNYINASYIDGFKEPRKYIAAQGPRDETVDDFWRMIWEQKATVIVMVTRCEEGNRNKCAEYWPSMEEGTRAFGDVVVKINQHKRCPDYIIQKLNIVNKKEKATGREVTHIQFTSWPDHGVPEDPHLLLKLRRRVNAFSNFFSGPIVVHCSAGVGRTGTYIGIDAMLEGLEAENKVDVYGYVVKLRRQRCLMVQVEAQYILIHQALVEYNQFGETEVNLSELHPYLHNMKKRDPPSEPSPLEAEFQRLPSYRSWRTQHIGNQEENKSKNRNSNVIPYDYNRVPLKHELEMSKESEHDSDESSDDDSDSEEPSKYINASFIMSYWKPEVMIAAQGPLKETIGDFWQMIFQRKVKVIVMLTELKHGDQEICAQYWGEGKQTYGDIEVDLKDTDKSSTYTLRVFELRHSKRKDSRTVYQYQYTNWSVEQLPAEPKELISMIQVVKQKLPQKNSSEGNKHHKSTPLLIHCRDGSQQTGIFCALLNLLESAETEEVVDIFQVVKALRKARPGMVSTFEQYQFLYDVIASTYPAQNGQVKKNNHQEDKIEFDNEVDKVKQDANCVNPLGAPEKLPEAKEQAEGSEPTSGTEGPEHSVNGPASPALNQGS
Description: Intracellular CD45 inhibition in JTAg cells, anti-pLck. Type of test: cell-based.

The test system of test [5] is LYP.
Test [6] has as its system CD45.

Where two headings read alike, the source gives them in different places. Where only a bound is given, the exact number is not on record here.

The term IC50 denotes the concentration at which inhibition is half-maximal. On to `[Cl][Au][PH](c1ccccc1)(c1ccccc1)c1ccccn1` [Compound 17, Diphenyl-2-pyridylphosphine-Au(I)-Cl], for which the “LYP versus PTP-PEST inhibition in comparative library screen” value at LYP [1] is “more potent inhibitors of LYP than PTP-PEST regardless of the substrate used”. For the same compound, the “selectivity for LYP over PTP-PEST in dose-response screens” value at LYP [1] was “selective for LYP over the ~ 70% identical PTP-PEST”. For the same compound, the IC50 at LYP [1] (read-out: IC50 LYP (DiFMUP)) was 5 ± 0.2 µM; on LYP [1] (read-out: IC50 LYP (peptide 1)) it was 1.5 ± 0.3 µM; at PTP-PEST (read-out: IC50 PEST (DiFMUP)), 76 ± 3 µM; on PTP-PEST (read-out: IC50 PEST (peptide 1)) it was 43 ± 3 µM; on HePTP, 35 ± 2 µM; on CD45 [2], over 150 µM. Moreover, the “phosphorylation of Lck at Y394 (LYP activity in cells)” value with LYP [3] is recorded as “increase in phosphorylation at Y394”. In addition, the “phosphorylation of Lck at Y505 (CD45 activity in cells)” value at CD45 [4] is “no change in phosphorylation levels at position Y505”. For the same compound, the “LYP activity in primary mouse thymocytes (pLck Tyr394)” value with LYP [5] is listed as “appears to inhibit LYP activity”. Also, in the test with CD45 [6], the “CD45 activity in primary mouse thymocytes (pLck Tyr505)” value is “not CD45 activity”.

Consider `CCP(CC)CC.[Au+].[Cl-]` [Compound 39], for which the “selectivity for LYP over PTP-PEST in dose-response screens” value on LYP [1] (in vitro, Table 1) is given as “selective for LYP over the ~ 70% identical PTP-PEST”. The “LYP versus PTP-PEST inhibition in comparative library screen” value on LYP [1] (nominal 5 µM, DiFMUP and peptide 1) was “appears LYP selective with peptide 1, but not with DiFMUP”. Moreover, the IC50 on LYP [1] (read-out: IC50 LYP (DiFMUP), substrate DiFMUP 1.5 µM) was 33 ± 3 µM; at LYP [1] (read-out: IC50 LYP (peptide 1), substrate peptide 1 10 µM), 26 ± 2 µM; on PTP-PEST (read-out: IC50 PEST (DiFMUP), substrate DiFMUP 1.5 µM), over 150 µM; at PTP-PEST (read-out: IC50 PEST (peptide 1), substrate peptide 1 10 µM) it was 93 ± 9 µM; on HePTP (substrate DiFMUP) it was 120 ± 5 µM; on CD45 [2] (substrate DiFMUP) it was 33 ± 3 µM. The “selectivity for LYP over PTP-PEST” value at LYP [1] (with peptide 1 as substrate) is about 4 fold. The “phosphorylation of Lck at Y394 (LYP activity in cells)” value in the test on LYP [3] (JTAg cells, TCR stimulated (C305, 2 min), 50 µM of 17 and 34, 25 µM of 39, 1 h) is “increase in phosphorylation at Y394”. For the same compound, the “phosphorylation of Lck at Y505 (CD45 activity in cells)” value at CD45 [4] (JTAg cells, 50 µM of 17 and 34, 25 µM of 39, 1 h) is given as “increase in this band”.
